According to PubChem BioAssay AID488890 (Southern Research Specialized Biocontainment Screening …, 2010):
Records with an inconclusive call do not appear. Calls of active or inactive are those of the source. No rule for the calls is given here.

These molecules were tested on Mycobacterium tuberculosis non-replicating, growth inhibition (assay: growth inhibition of non-replicating M. tuberculosis (AID 488890)).

First: O=C(OCCCOC(=O)c1ccc([N+](=O)[O-])o1)c1ccc([N+](=O)[O-])o1
Second: CN1/C(=C\C(=O)COC(=O)c2ccc([N+](=O)[O-])o2)C(C)(C)c2ccccc21
The IC50 of the first is 3-fold lower: 1.22 µM for the first, 3.61 µM for the second.

`O=C(Nc1nc(-c2cc(F)ccc2F)cs1)c1ccccn1` and `O=C(OCc1ccc(Cl)c(Cl)c1)c1ccccn1` are within 1.5-fold of each other in IC50: 2.28 µM for the first, 2.27 µM for the second.

`Cc1nc2c(=O)n(C)c(=O)nc-2n(C)n1` and `Cc1cc(C)c2ccc(/C=N/O)nc2c1O` are within 1.5-fold of each other in IC50: 8.25 µM for the first, 5.77 µM for the second.

Going from `O=C(Nc1cccc(S(=O)(=O)N2CCCCC2)c1)c1ccc([N+](=O)[O-])o1` to `Cc1cc(NC(=O)C2CCCCC2)n(-c2nc3ccccc3[nH]2)n1`, the IC50 rises from 4.07 µM to 6.84 µM (1.7-fold). The first is the more potent here.

`COc1ccc(C2=NOC(COC(=O)c3ccc4ccccc4n3)C2)cc1` (configuration not stated) and `COC(=O)C(C)Oc1ccc2cc(-c3ccccc3)c(=O)oc2c1` (configuration not stated) are within 1.5-fold of each other in IC50: 5.43 µM for the first, 4.96 µM for the second.

First: Cc1ccc(OCC(=O)N2CCCc3ccccc32)cc1
Second: CCOC(=O)c1ccc(NC(=O)NS(=O)(=O)c2ccc(C)cc2)cc1
The IC50 of the first is 1.9-fold higher: 6.25 µM for the first, 3.31 µM for the second.

`O=C(CCNc1ccc(Cl)c(C(F)(F)F)c1)c1ccco1` and `Cc1ccc(CCC(=O)Nc2cc(Cl)ccc2Cl)o1` are within 1.5-fold of each other in IC50: 5.63 µM for the first, 3.79 µM for the second.

First: O=c1[nH]c(O)c(/C=C2/C=CC(c3cc(Cl)ccc3Cl)=N2)c(=O)[nH]1
Second: COc1cc(/C=N/Nc2ccc(Cl)c(C(=O)O)c2)ccc1OC(=O)c1cccs1
The IC50 of the first is 24-fold lower: 0.34 µM for the first, 8.27 µM for the second.

Compared with `COc1cccc2sc(Nc3nnc(-c4cccs4)o3)nc12`, `O=[N+]([O-])c1ncccc1Oc1nc(-c2cccnc2)nc2ccccc12` is 6.7-fold lower in IC50: 4.87 µM for the first, 0.73 µM for the second.

First: CC(=O)OCCNc1cc(Sc2nc3ccccc3[nH]2)c2nonc2c1[N+](=O)[O-]
Second: O=C(NCCc1c[nH]c2ccccc12)c1cc2ccccc2oc1=O
The IC50 of the first is 2-fold lower: 2.41 µM for the first, 4.78 µM for the second.

`CCCC(O)(CCC)C(=O)NNc1ccc(C)cc1` and `CCOC(=O)CNCCC(=O)c1ccc(Br)cc1` are within 1.5-fold of each other in IC50: 5.94 µM for the first, 4.35 µM for the second.

`Cn1[nH]c(-c2ccccc2)c(/C=N/O)c1=O` and `O=c1c2ccccc2sn1-c1ccccc1` are within 1.5-fold of each other in IC50: 8.99 µM for the first, 6.8 µM for the second.

`C/C(=N\NC(=O)c1cccc(Br)c1)c1ccccn1` and `O=[N+]([O-])c1cccnc1N/N=C/c1ccccc1O` are within 1.5-fold of each other in IC50: 3.65 µM for the first, 2.87 µM for the second.

Going from `O=C(NC1CCOc2ccccc21)c1ccc(Cl)nc1` (configuration not stated) to `COC(=O)c1ccc(C(=O)NC2CCCc3c2cnn3-c2cc(F)cc(F)c2)nc1` (configuration not stated), the IC50 rises from 1.46 µM to 9.55 µM (6.5-fold). The first is the more potent here.

First: CCCCCCCC(=O)N/N=C/c1ccc([N+](=O)[O-])o1
Second: O=C(N/N=C/c1ccccn1)c1cc([N+](=O)[O-])cc([N+](=O)[O-])c1
The IC50 of the first is 3.8-fold lower: 2.63 µM for the first, 9.98 µM for the second. The first is the more potent here.

Going from `Cc1cc(C)c2sc(NC(=O)C3=COCCO3)nc2c1` to `Cc1cc(C)cc(NC(=O)CCc2ccc(C)o2)c1`, the IC50 falls from 8.29 µM to 1.42 µM (5.8-fold).

Compared with `Cc1nnc(N/N=C/c2ccc(-c3ccc(Br)cc3)o2)n1N`, `On1onc2c3cc(-c4ccccc4)nc3ccc21` is 11-fold lower in IC50: 3.49 µM for the first, 0.31 µM for the second. The second is the more potent here.

Compared with `CCc1ccc(C(=O)NC2CCCCC2)s1`, `Cc1ccc(C(=O)N2N=C(CC(C)C)CC2(O)C(F)(F)F)o1` (configuration not stated) is 6.7-fold higher in IC50: 0.94 µM for the first, 6.3 µM for the second. The first is the more potent here.

In the case of `FC(F)(F)c1nnc2ccc(Cl)nn12`, the IC50 is reported as 1.56 µM.

For `CCOC(=O)C1CCCN(Cc2ccc(OCc3ccccc3)cc2)C1` (configuration not stated), the IC50 was 21.8 µM (inactive).
With `CSc1ccccc1NC(=O)c1cc(C(C)C)on1` the IC50 was 22.2 µM (inactive).
`CCC(CC)COC(=O)C(C#N)c1nc2ccccc2nc1N1CCN(CC)CC1` (configuration not stated) was tested, and the IC50 was 15.4 µM (inactive).
In the case of `O=C(NNc1ccc([N+](=O)[O-])cc1)C1CC2CCCC(C1)C2=O` (configuration not stated), the IC50 is reported as 16.2 µM (inactive).
For `O=C1Nc2ccc(Br)cc2/C1=C/C(=O)c1ccc2c(c1)OCO2`, the IC50 was 10.6 µM (inactive).
In the case of `COc1cc(C=O)ccc1OCCCCOc1ccccc1[N+](=O)[O-]`, the IC50 is reported as 27.6 µM (inactive).
In the case of `COC(=O)c1ccccc1NC(=O)C1CC(c2ccc(F)cc2)=NO1` (configuration not stated), the IC50 is reported as 10.2 µM (inactive).
With `O=C(NC1=NCCS1)c1ccc(-c2ccc(Cl)cc2)o1` the IC50 was 11.9 µM (inactive).
`COc1cccc(-c2nnc(NC(=O)c3ccc(S(=O)(=O)N4CCOCC4)cc3)o2)c1` was tested, and the IC50 was 18.7 µM (inactive).
In the case of `CN(C)CCN1C(=O)c2oc3ccccc3c(=O)c2C1c1cccc(Br)c1` (configuration not stated), the IC50 is reported as 23.1 µM (inactive).
